Paper PMC8096218, “Global RNA profiles show target selectivity and physiological effects of peptide-delivered antisense antibiotics” (Nucleic Acids Research, 2021)
Read-outs that look alike come from different tables or passages of the source.

Tests used:
LT2 PhoP^C = assay: MIC determination by broth microdilution; format: cell-based, Salmonella enterica serovar Typhimurium; details: Table 3; ∼10^5 cfu/ml; three biological replicates
Description: (§1) MIC values were determined by broth microdilution according to standard protocols with a few modifications ([26]). An overnight bacterial cell culture, supplemented with the appropriate antibiotic when needed, was diluted 1:100 in fresh MHB and grown to OD600 0.5. The obtained culture was diluted to ∼10^5 cfu/ml or 10^6 cfu/ml, as indicated, in non-cation-adjusted MHB. Subsequently, 190 μl bacterial solution was dispensed into a 96-well plate (Thermo Fisher Scientific) along with 10 μl of a 20x PPNA, PNA or peptide working solution. Growth was monitored by measuring the OD at 600 nm every 20 min in a Synergy H1 plate reader (Biotek) with continuous double-orbital shaking (237 cpm) at 37°C for 24 h.
(§2) Fig. S5. Growth k inetics for MIC determ ination of 10^5 cfu/m l Salmonella wt (LT 2) and its isogenic
(§3) Pho PC m utant in the presen ce of var ying co ncentra tio n s of the in dicat ed co njugat e s. ( A) KFF-acpP,
(§4) KFF-acpP-scram bled (scr) or KFF peptide in s erial dilutions from 10 µM to 0.3 µM. ( B) RXR- acpP,
(§5) RXR- acpP-scram bled (scr) or RXR peptide in serial dilutions from 10 µM to 0.3 µ M. ( C) T at-acpP,
(§6) T at-acpP-scram bled (scr) or T at peptide in serial dilutions from 20 µM to 0.6 µM. Data represent
(§7) the average of three biological replicates, error bars indicate standard error of the m ean (SEM).
(§8) (1 picture or pasted object on this page, not shown here)

SL1344 ΔphoP = assay: MIC determination by broth microdilution; format: cell-based, Salmonella enterica serovar Typhimurium; details: Table 3; ∼10^5 cfu/ml; three biological replicates
Description: as §1
Fig. S4. Growth kinetics for MIC determ ination of 10^5 cfu/m l Salmonella wt (SL1344) and its isogenic ∆phoP m utant in the pres ence of var ying concentrations of the indicated conjugates. ( A) KFF-acpP, KFF-acpP-scram bled (scr) or KFF peptide in serial dilutions from 10 µM to 0.3 µM. ( B) RXR- acpP, RXR-acpP-scram bled (scr) or RXR peptide in seria l d ilutions f rom 10 µM to 0. 3 µM. ( C) T at-acpP, T at-acpP-scrambled (scr) or T at peptide in serial dilutions from 20 µM to 0.6 µM. D ata represent the average of three biological replicates, error bars indicate standard er ror of the m ean […]
as §8

[1] = system: wild-type Salmonella enterica serovar Typhimurium strain LT2; assay: MIC determination by broth microdilution; format: cell-based; details: Table 3; ∼10^5 cfu/ml; three biological replicates
Description: as §1, §2, §3, §4, §5, §6, §7, §8

[2] = system: Salmonella gene expression; assay: RNA-seq transcriptomic response; format: cell-based, Salmonella enterica serovar Typhimurium; details: 15 min
Description: Bacterial overnight cultures were diluted 1:100 in fresh MHB and grown to OD600 0.5. The obtained cultures were diluted to ∼10^6 cfu/ml in non-cation-adjusted MHB. Afterward, the bacterial solution was transferred into low-binding 5 ml tubes (LABsolute) along with the 20× PNA, peptide or PPNA solution. The final concentrations were 5 μM for KFF- and RXR-PNAs, and 10 μM for Tat-PNAs. Equimolar concentrations were used for the respective peptide control conditions. As a negative control, cells were treated with the respective volume of sterile nuclease-free water, which was used as solvent for the test compounds.
A time kinetic was performed for subsequent northern blot analysis (5, 10, 15 min), in which the reaction was stopped at the indicated time points by using RNAprotect Bacteria (Qiagen). For RNA-seq analyses, adding RNAprotect Bacteria at 15 min post treatment stopped the reactions with the indicated PPNA constructs or the respective peptide. After vortexing for 5 s, the samples were incubated at room temperature for 10 min, followed by cell pelleting at 4°C and 21 100 ×g for 20 min. Pellets were directly used for RNA isolation or stored at –20°C (<2 days) until further processing. RNA was purified from bacterial pellets using isolation protocol #3, as described above (0.5 mg/ml lysozyme, miRNeasy).
DNase treatment, cDNA library preparation and sequencing was conducted at Vertis (Munich, Germany). The RNA samples were first fragmented using ultrasound (4 pulses of 30 s each at 4°C). Then, an oligonucleotide adapter was ligated to the 3′ ends of the RNA molecules. First-strand cDNA synthesis was performed using M-MLV reverse transcriptase and the 3′ adapter as primer. The first-strand cDNA was purified and the 5′ Illumina TruSeq sequencing adapter was ligated to the 3′ end of the antisense cDNA. The resulting cDNA was PCR-amplified to about 10–20 ng/μl using a high fidelity DNA polymerase. The cDNA was purified using the Agencourt AMPure XP kit (Beckman Coulter Genomics) and was analyzed by capillary electrophoresis. For Illumina NextSeq sequencing, the samples were pooled in approximately equimolar amounts. The cDNA pool was sequenced on an Illumina NextSeq 500 system using 75 bp read length.
Reads from the RNA-Seq experiments were trimmed, filtered and mapped against the S. enterica subsp. enterica serovar Typhimurium SL1344 reference genome and the three plasmids pSLT_SL1344, pCol1B9_SL1344 (other name is p2), and pRSF1010_SL1344 ([19]). BBDuk was applied to trim bases with a Phred quality score of <10, and adapters were removed simultaneously. Reads were then mapped against the reference genome using BBMap (v38.84) and then assigned genomic features, including both coding sequences and annotated sRNAs ([19],[29]) using the featureCounts method of the Subread (2.0.1) package.
All downstream analysis was performed using packages from the R/Bioconductor project. The raw read counts were imported and analyzed with edgeR (v3.30.0). Each set of PNA-peptide conjugate experiments (i.e. experiments with KFF, RXR and Tat peptide) was analyzed simultaneously. Genes with less than 14.6 counts per million (CPM) in at least three libraries were filtered. This cutoff value was calculated using 10/L, where L is the library size of the smallest sample (minimum library size) in millions.
Raw read counts were normalized by trimmed mean of M values (TMM) normalization. Differential expression analysis was conducted using edgeR ([31]). Estimation of quasi-likelihood (QL) dispersions was then run with the […] function. Then contrasts between all samples versus the water controls were created as input for the glmQLTest function.
Genes with an absolute fold change >2 and an adjusted P-value (Benjamini–Hochberg, ([32])) <0.001 were considered differentially expressed.

[3] = system: wild-type (wt) Salmonella enterica serovar Typhimurium strain SL1344; details: non-cation-adjusted MHB, 37°C, 24 h
Description: as §1

[4] = RNA-seq, 5 μM, listed as RXR-acpP-scrambled
[5] = edgeR, versus water, 5 μM RXR-constructs, 10 μM Tat-constructs, triplicates, listed as PNARXRscr

RXRRXRRXRRXRXB [RXR-acpP-scr]
MIC in μM, LT2 PhoP^C (LT2 PhoP^C): >10 µM | MIC in μM, SL1344 ΔphoP (SL1344 ΔphoP): 5 µM | MIC in μM, LT2 wt [1]: 10 µM | number of downregulated sRNAs, apart from the induction of AmgR [2, 4]: three | upregulation of mig-14 [2, 4]: 1.92 fold | logFC yfiA ([2]; edgeR, versus water, 5 μM KFF-/RXR-constructs, 10 μM Tat-constructs, triplicates): 1.5255 | logFC SL1344_0066A [2, 5]: 4.581 | logFC SL1344_2742 [2, 5]: 3.203 | logFC mgtA [2, 5]: 1.779 | logFC yihO ([2]; edgeR, versus water, 5 μM, triplicates): 3.308 | MIC ([3]; Table 1, ∼10^5 cfu/ml, lowest concentration with OD600 < 0.1): >10 µM | MIC ([3]; Table 2, ∼10^6 cfu/ml, performed three times): >10 µM
